In US20230212549A1, “COMPOUNDS COMPRISING A […] LIGAND AND USE THEREOF” (priority 2021, published 2023):
Where two headings read alike, the source gives them in different places.

Tests used:
[1] = biological target: T1, FAP-expressing human WI-38 fibroblasts (Homo sapiens, UniProt Q12884); test: Competitive FACS binding assay; details: for pIC50 Category (FACS): competition with 3 nM Cy5-labeled compound, 4° C., 1 hour, WI-38 fibroblasts
T1 construct: FAP-expressing human WI-38 fibroblasts (ECACC) were cultured in EMEM; host or cells: WI-38 human fibroblasts
Description: Cells were analyzed in an Attune NxT flow cytometer. […] […].
Cells were analyzed in an Attune NxT flow cytometer. […]

HEK-FAP tumor [2] = details: ^68Ga-labeled, PET/CT
Human recombinant FAP [3] = biological target: T2, Human recombinant FAP (Homo sapiens, UniProt Q12884); test: FRET-based FAP protease activity assay; assay type: biochemical; parameters: purchased R&D systems 3715-SE; details: for IC50: pIC50 Category (activity), Recombinant human FAP; for pIC50 Category (activity): FRET-peptide substrate, 37° C.
Human recombinant FAP [4] = biological target: T2, Human recombinant FAP; test: Surface plasmon resonance (Biacore) assay; assay type: binding; details: for pKD Category: Biacore, SCK mode, 25° C.
[5] = Radiochemical purity by HPLC of ^99mTc-labeled compounds; assay type: physicochemical; details: 99Tc-labeled compounds
Description: 100-500 MBq of ^99mTcO4 (in saline) were mixed with 11 μl of 0.5 M phosphate buffer pH 11.5-12.0 and 1.1 μl of 0.1 M trisodium citrate per 100 μl radionuclide solution. […] The mixture was incubated for 30 min at 25-50′° C. At the end of the incubation time, the mixture was neutralized with 3.0 μl 1 M HCl per 10 μl phosphate buffer and TWEEN-20 was added at a final concentration of 0.100.

HEK-FAP tumor [6] = details: for uptake BPS 1 h / uptake BPS 3 h / uptake BPS 6 h / uptake Tumor 1 h / uptake Tumor 3 h / uptake Tumor 6 h / uptake Kidneys 1 h / uptake Kidneys 3 h / uptake Kidneys 6 h: ^99mTc-labeled, SPECT/CT; for uptake BPS 1 h / uptake BPS 3 h / uptake BPS 6 h: BPS (blood pool surrogate); for uptake BPS 1 h / uptake Tumor 1 h / uptake Kidneys 1 h: 1 h post tracer injection; for uptake BPS 3 h / uptake Tumor 3 h / uptake Kidneys 3 h: 3 h post tracer injection; for uptake BPS 6 h / uptake Tumor 6 h / uptake Kidneys 6 h: 6 h post tracer injection; for uptake Tumor 1 h / uptake Tumor 3 h / uptake Tumor 6 h: HEK-FAP tumor; for uptake in healthy tissues (biodistribution): ^99mTc-labelled, 1-6 h post injection, compared to 3BP-4219 and 3BP-4221
in vivo = details: swiss nude, mouse, iv

T2 sequence (Q12884 whole entry): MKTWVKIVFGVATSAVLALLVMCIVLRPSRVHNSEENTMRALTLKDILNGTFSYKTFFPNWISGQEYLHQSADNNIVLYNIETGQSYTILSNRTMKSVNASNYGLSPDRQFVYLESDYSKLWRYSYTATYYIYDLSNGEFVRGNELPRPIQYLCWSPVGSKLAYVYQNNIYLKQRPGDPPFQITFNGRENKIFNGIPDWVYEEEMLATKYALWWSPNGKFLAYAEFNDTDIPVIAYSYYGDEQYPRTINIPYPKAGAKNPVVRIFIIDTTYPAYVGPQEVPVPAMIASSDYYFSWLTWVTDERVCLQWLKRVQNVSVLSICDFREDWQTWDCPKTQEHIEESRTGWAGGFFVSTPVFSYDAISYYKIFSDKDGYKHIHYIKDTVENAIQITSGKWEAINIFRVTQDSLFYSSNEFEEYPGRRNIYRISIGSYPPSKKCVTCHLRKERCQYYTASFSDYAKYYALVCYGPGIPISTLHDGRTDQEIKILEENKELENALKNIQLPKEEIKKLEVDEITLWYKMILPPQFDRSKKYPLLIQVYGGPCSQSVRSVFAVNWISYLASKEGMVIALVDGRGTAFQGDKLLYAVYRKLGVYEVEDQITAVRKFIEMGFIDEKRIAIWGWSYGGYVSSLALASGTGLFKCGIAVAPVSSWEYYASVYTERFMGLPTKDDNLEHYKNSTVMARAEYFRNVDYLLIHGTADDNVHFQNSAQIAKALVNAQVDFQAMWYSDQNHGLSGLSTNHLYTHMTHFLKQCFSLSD
T1 sequence (Q12884 whole entry): as above

Molecule	IC50 [1] [nM]	IC50 (Human recombinant FAP [3]) [nM]	HPLC Area % at end of synthesis [5] [%]	Kd (Human recombinant FAP [4]) [nM]	tissue uptake at 1 h (in vivo; blood pool surrogate (BPS)) [%ID/g]	tissue uptake at 3 h (in vivo; blood pool surrogate (BPS)) [%ID/g]	tissue uptake at 6 h (in vivo; blood pool surrogate (BPS)) [%ID/g]	tissue uptake at 1 h (in vivo; kidneys) [%ID/g]	tissue uptake at 3 h (in vivo; kidneys) [%ID/g]	tissue uptake at 6 h (in vivo; kidneys) [%ID/g]	tissue uptake at 1 h (in vivo; tumor) [%ID/g]	tissue uptake at 3 h (in vivo; tumor) [%ID/g]	tissue uptake at 6 h (in vivo; tumor) [%ID/g]	other results
CCCC[C@H](NC(=O)CCC(=O)NCCCOCCOCCOCCCNC(=O)CCC(C(=O)O)N1CCN(CC(=O)O)CCN(CC(=O)O)CC1)C(=O)N[C@H]1CSCc2cccc(c2)CSCC(C(=O)O)NC(=O)[C@H](Cc2ccccc2)NC(=O)[C@H](CCC(N)=O)NC(=O)[C@H]([C@@H](C)O)NC(=O)[C@@H]2CCCN2C(=O)[C@@H]2CCCN2C1=O (stereo partly drawn) [3BP-4713, NODAGA-Ttds-Nle-[Cys(3MeBn)-Pro-Pro-Thr-Gln-Phe-Cys]-OH]	10 to 79.4	10 to 79.4												uptake BPS 0.25 h (HEK-FAP tumor [2]; BPS (blood pool surrogate), 0.25 h post tracer injection): 2.27 % ID/g; uptake BPS 1 h (HEK-FAP tumor [2]; BPS (blood pool surrogate), 1 h post tracer injection): 0.77 % ID/g; uptake BPS 3 h (HEK-FAP tumor [2]; BPS (blood pool surrogate), 3 h post tracer injection): 0.19 % ID/g; uptake Tumor 0.25 h (HEK-FAP tumor [2]; HEK-FAP tumor, 0.25 h post tracer injection): 3.46 % ID/g; uptake Tumor 1 h (HEK-FAP tumor [2]; HEK-FAP tumor, 1 h post tracer injection): 3.90 % ID/g; uptake Tumor 3 h (HEK-FAP tumor [2]; HEK-FAP tumor, 3 h post tracer injection): 3.21 % ID/g; uptake Kidneys 0.25 h (HEK-FAP tumor [2]; kidneys, 0.25 h post tracer injection): 9.05 % ID/g; uptake Kidneys 1 h (HEK-FAP tumor [2]; kidneys, 1 h post tracer injection): 2.50 % ID/g; uptake Kidneys 3 h (HEK-FAP tumor [2]; kidneys, 3 h post tracer injection): 0.82 % ID/g
N4Ac-PEG6-Nle-[Cys-(3MeBn)-Pro-Pro-Thr-Glu-Phe-Cys]-OH [3BP-4221]			99.0											pIC50 Category (FACS) [1]: B (category B for pIC50 values between 7.1 and 8.0); pKD Category (Human recombinant FAP [4]): A (Category A stands for pKD values >8.0); HPLC Area % appr. 4 h post end of synthesis ([5]; (5.5 h)): 97.4%; uptake BPS 1 h (HEK-FAP tumor [6]): 0.54 % ID/g; uptake BPS 3 h (HEK-FAP tumor [6]): 0.27 % ID/g; uptake BPS 6 h (HEK-FAP tumor [6]): 0.16 % ID/g; uptake Tumor 1 h (HEK-FAP tumor [6]): 8.51 % ID/g; uptake Tumor 3 h (HEK-FAP tumor [6]): 8.32 % ID/g; uptake Tumor 6 h (HEK-FAP tumor [6]): 7.97 % ID/g; uptake Kidneys 1 h (HEK-FAP tumor [6]): 4.74 % ID/g; uptake Kidneys 3 h (HEK-FAP tumor [6]): 3.73 % ID/g; uptake Kidneys 6 h (HEK-FAP tumor [6]): 2.56 % ID/g; pIC50 Category (activity) (Human recombinant FAP [3]): B (category B for pIC50 values between 7.1 and 8.0)
CCCC[C@H](NC(=O)CCC(=O)NCCCOCCOCCOCCCNC(=O)CN1CCN(C(=O)C(CNCCN)CNCCN)CC1)C(=O)N[C@H]1CSCc2cncc(c2)CSC[C@@H](C(=O)NCCC(=O)O)NC(=O)[C@H](Cc2ccccc2)NC(=O)[C@H](CCC(N)=O)NC(=O)[C@H]([C@@H](C)O)NC(=O)[C@@H]2CCCN2C(=O)[C@@H]2CCCN2C1=O [3BP-4961, N4Ac-PPAc-Ttds-Nle-[Cys(3Lut)-Pro-Pro-Thr-Gln-Phe-Cys]-Bal-OH]	< 10	< 10	98.0	< 10	0.47	0.31	0.11	2.36	1.12	0.77	10.5	11.4	12.3	uptake in healthy tissues (biodistribution) (HEK-FAP tumor [6]): decreased uptake in healthy tissues over time
N4Ac-Ttds-Nle-[Cys-(3MeBn)-Pro-Pro-Thr-Gln-Phe-Cys]-OH [3BP-4219]			94.8											pIC50 Category (FACS) [1]: B (category B for pIC50 values between 7.1 and 8.0); pKD Category (Human recombinant FAP [4]): A (Category A stands for pKD values >8.0); HPLC Area % appr. 4 h post end of synthesis ([5]; (5.5 h)): 93.8%; uptake BPS 1 h (HEK-FAP tumor [6]): 0.21 % ID/g; uptake BPS 3 h (HEK-FAP tumor [6]): 0.09 % ID/g; uptake BPS 6 h (HEK-FAP tumor [6]): 0.07 % ID/g; uptake Tumor 1 h (HEK-FAP tumor [6]): 6.80 % ID/g; uptake Tumor 3 h (HEK-FAP tumor [6]): 7.62 % ID/g; uptake Tumor 6 h (HEK-FAP tumor [6]): 4.52 % ID/g; uptake Kidneys 1 h (HEK-FAP tumor [6]): 1.85 % ID/g; uptake Kidneys 3 h (HEK-FAP tumor [6]): 1.84 % ID/g; uptake Kidneys 6 h (HEK-FAP tumor [6]): 0.55 % ID/g; pIC50 Category (activity) (Human recombinant FAP [3]): A (pIC50 category A stands for pIC50 values >8.0)
CCCC[C@H](NC(=O)CCC(=O)NCCCOCCOCCOCCCNC(=O)CN1CCN(C(=O)C(CNCCN)CNCCN)CC1)C(=O)N[C@H]1CSCc2cccc(c2)CSC[C@@H](C(=O)NCCC(=O)O)NC(=O)[C@H](Cc2ccccc2)NC(=O)[C@H](CCC(N)=O)NC(=O)[C@H]([C@@H](C)O)NC(=O)[C@@H]2CCCN2C(=O)[C@@H]2CCCN2C1=O [3BP-4960, N4Ac-PPAc-Ttds-Nle-[Cys(3MeBn)-Pro-Pro-Thr-Gln-Phe-Cys]-Bal-OH]	< 10	< 10	95.2	< 10	0.74	0.47	0.17	1.96	1.21	1.21	10.5	12.8	12.1	HPLC Area % appr. 4 h post end of synthesis [5]: 92.3%
CCCC[C@H](NC(=O)CCC(=O)NCCCOCCOCCOCCCNC(=O)CN1CCN(C(=O)C(CNCCN)CNCCN)CC1)C(=O)N[C@H]1CSCc2cccc(c2)CSCC(C(=O)O)NC(=O)[C@H](Cc2ccccc2)NC(=O)[C@H](CCC(N)=O)NC(=O)[C@H]([C@@H](C)O)NC(=O)[C@@H]2CCCN2C(=O)[C@@H]2CCCN2C1=O (stereo partly drawn) [3BP-4541, N4Ac-PPAc-Ttds-Nle-[Cys(3MeBn)-Pro-Pro-Thr-Gln-Phe-Cys]-OH]	10 to 79.4	10 to 79.4	95.8	10 to 79.4	0.48	0.2	0.06	4.02	2.41	1.01	8.81	9.76	7.48	HPLC Area % appr. 4 h post end of synthesis [5]: 89.7%; uptake in healthy tissues (biodistribution) (HEK-FAP tumor [6]): decreased uptake in healthy tissues over time
CCCC[C@H](NC(=O)CCOCCOCCOCCOCCOCCOCCNC(=O)C(CNCCN)CNCCN)C(=O)N[C@H]1CSCc2cncc(c2)CSCC(C(=O)O)NC(=O)[C@H](Cc2ccccc2)NC(=O)[C@H](CCC(N)=O)NC(=O)[C@H]([C@@H](C)O)NC(=O)[C@@H]2CCCN2C(=O)[C@@H]2CCCN2C1=O (stereo partly drawn) [3BP-4550, N4Ac-PEG6-Nle-[Cys(3Lut)-Pro-Pro-Thr-Gln-Phe-Cys]-OH]	100 to 794	10 to 79.4	100	10 to 79.4	0.06	0.03	0.04	0.92	0.62	0.38	6.14	4.91	2.91	HPLC Area % appr. 4 h post end of synthesis ([5]; (3 h)): 98.0%
